Source: article PMC8151276, “An Integrated Approach toward NanoBRET Tracers for Analysis of GPCR Ligand Engagement” (Molecules, 2021)
Read-outs that look alike come from different tables or passages of the source.

Legend:
Format in all cases: binding
ADRA2C = target: T1, ADRA2C (Homo sapiens, UniProt P18825); assay: NanoBRET screen HiBiT-ADRA2C in HEK293
T1 construct: purchased Promega (in-house HiBiT-GPCR construct library, NanoBRET)
T1 sequence (P18825 1-462): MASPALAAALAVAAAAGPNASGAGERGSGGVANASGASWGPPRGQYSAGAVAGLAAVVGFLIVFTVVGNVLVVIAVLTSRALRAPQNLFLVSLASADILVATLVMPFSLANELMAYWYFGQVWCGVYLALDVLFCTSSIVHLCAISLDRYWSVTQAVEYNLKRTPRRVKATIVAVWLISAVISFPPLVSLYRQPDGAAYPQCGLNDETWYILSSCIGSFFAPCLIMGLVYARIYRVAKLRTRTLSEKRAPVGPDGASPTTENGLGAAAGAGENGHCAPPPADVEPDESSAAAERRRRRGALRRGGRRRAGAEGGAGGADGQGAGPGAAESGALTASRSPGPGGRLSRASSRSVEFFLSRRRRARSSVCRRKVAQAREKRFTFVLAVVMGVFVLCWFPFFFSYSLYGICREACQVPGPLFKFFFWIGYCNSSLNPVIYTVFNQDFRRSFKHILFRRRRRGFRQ
Method: Each tracer candidate was screened across the entire library of HiBiT-GPCR constructs using NanoBRET as the detection modality. As depicted in Figure 4A, the specificity of interactions was evaluated through decrease in BRET due to competitive displacement of a bound tracer by excess parental compound. Each tracer was analyzed for binding to each HiBiT-GPCR fusion in the absence and in the presence of competing parental compound. Briefly, HEK293 cells were transfected with HiBiT-GPCR constructs diluted into promoterless DNA to reduce expression and maximize translocation to the cell surface. Each tracer candidate was then screened at concentrations of 1 μM and 0.1 μM across cells expressing these fusions. Cells were treated for 1.5 h with tracer either alone or in the presence of 20 μM competing parental compound (i.e., control). BRET was measured upon addition of purified LgBiT and subsequent complementation with HiBiT genetically fused to a GPCR. The specificity of interactions was assessed through a decrease in BRET signal due to competitive displacement of the bound tracer. To further gauge the robustness of these interactions, the fold response over the control (i.e., BRETtracer/BRETcontrol) was calculated. We chose a 1.5-fold response, which translates to ≥7-fold signal over noise as the minimal threshold required to score an interaction as positive. […]. Below we highlight the screening results obtained for our exemplary fluorescent tracers based on Clozapine, Amitriptyline and AZD1283.
HiBiT-GPCR DNA constructs were diluted in 10 mM Tris pH 8 to a final concentration of 0.01 μg/μL, arrayed in 96-well plates and stored at −20 °C. For transfection, HEK293 cells were suspended in Opti-MEM (without phenol red) supplemented with 2% fetal bovine serum (Seradigm) and 100 units/mL penicillin–streptomycin (Gibco) at a final concentration of 220,000 cells/mL and dispensed into white 96-well plates at 90 μL/well. Subsequent transfections and screens were carried using an Agilent Bravo Automated Liquid Handling Platform. First, the 96-well HiBiT DNA arrays were diluted 25-fold in Opti-MEM (without serum or phenol red) to a final concentration of 0.0004 μg/μL and 20 μL of the diluted DNAs were transferred into new 96-well plates. Next, promoterless carrier DNA (1 μg/μL) was diluted 25-fold (0.04 μg/μL) and then dispensed into the diluted arrays at 20 μL/well. Following brief mixing, Viafect transfection reagent (Promega) diluted 16-fold into Opti-MEM was dispensed into the plates at 40 μL/well. After mixing by pipetting, plates were incubated for 10 min on the pipetting station deck. The DNA-transfection reagent complexes were then added to plates containing cells. To facilitate the screen, 10 μL of DNA-transfection reagent complexes were added in duplicates to the top 4 and bottom 4 rows, resulting in two identical 48-well arrays per plate. Plates with transfected cells were incubated for 18–20 h at 37 °C/5% CO2. A screen of each tracer across the entire library using two different concentrations requires duplicate plates of transfected cells. Depending on the number of tracers being screened, transfections can be scaled up using the same ratios. The next day, for each tracer, four 20× screening solutions in tracer dilution buffer (Promega) were prepared: two duplicates at final concentration of 20 μM and two duplicates at a final concentration of 2 μM. A competing unmodified compound was added to one of each duplicate at a final concentration of 400 μM. The four resulting solutions were diluted 4-fold in Opti-MEM without serum or phenol red to generate 5× solutions (5 µM and 0.5 µM tracer +/− 100 μM competing compound). To screen the library, a BioTek MultiFlo FX liquid dispenser was used to dispense 22.5 µL of tracer solution to the top 4 rows and 22.5 µL tracer + competing compound solution to the 4 bottom rows. Plates were briefly mixed on an orbital shaker and incubated for 1.5 h at room temperature. […]

CHRM1 = target: T2, CHRM1 (Homo sapiens, UniProt P11229); assay: NanoBRET screen HiBiT-CHRM1 in HEK293
T2 construct: purchased Promega (in-house HiBiT-GPCR construct library, NanoBRET)
T2 sequence (P11229 1-460): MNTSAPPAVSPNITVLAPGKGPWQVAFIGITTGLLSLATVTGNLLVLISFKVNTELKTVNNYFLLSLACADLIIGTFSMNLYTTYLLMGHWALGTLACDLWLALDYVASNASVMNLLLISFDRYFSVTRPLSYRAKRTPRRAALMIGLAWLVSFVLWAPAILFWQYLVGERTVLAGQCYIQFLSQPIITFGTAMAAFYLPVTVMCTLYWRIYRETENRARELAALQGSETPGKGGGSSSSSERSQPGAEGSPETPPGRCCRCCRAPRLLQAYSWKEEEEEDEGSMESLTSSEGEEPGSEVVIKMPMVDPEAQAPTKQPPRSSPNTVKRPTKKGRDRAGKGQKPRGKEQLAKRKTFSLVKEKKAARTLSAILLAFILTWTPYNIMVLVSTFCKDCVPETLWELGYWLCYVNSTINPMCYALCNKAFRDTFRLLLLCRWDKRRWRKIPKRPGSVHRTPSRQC

HRH1 = target: T3, HRH1 (Homo sapiens, UniProt P35367); assay: NanoBRET screen HiBiT-HRH1 in HEK293
T3 construct: purchased Promega (in-house HiBiT-GPCR construct library, NanoBRET)
T3 sequence (P35367 whole entry): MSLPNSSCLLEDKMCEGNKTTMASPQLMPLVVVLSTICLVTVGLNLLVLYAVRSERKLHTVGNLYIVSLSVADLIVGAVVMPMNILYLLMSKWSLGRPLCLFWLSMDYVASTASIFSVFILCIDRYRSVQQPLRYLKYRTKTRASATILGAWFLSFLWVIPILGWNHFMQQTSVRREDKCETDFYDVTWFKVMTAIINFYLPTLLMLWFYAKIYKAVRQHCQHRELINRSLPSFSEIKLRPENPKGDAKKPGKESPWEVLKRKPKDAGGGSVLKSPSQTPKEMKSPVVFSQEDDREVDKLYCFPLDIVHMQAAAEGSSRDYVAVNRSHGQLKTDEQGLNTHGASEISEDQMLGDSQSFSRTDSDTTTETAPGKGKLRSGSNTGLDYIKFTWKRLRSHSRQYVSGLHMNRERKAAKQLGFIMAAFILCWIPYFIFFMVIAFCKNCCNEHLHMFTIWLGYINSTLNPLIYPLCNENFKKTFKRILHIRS

CHRM3 = target: T4, CHRM3 (Homo sapiens, UniProt P20309); assay: NanoBRET screen HiBiT-CHRM3 in HEK293
T4 construct: purchased Promega (in-house HiBiT-GPCR construct library, NanoBRET)
T4 sequence (P20309 whole entry): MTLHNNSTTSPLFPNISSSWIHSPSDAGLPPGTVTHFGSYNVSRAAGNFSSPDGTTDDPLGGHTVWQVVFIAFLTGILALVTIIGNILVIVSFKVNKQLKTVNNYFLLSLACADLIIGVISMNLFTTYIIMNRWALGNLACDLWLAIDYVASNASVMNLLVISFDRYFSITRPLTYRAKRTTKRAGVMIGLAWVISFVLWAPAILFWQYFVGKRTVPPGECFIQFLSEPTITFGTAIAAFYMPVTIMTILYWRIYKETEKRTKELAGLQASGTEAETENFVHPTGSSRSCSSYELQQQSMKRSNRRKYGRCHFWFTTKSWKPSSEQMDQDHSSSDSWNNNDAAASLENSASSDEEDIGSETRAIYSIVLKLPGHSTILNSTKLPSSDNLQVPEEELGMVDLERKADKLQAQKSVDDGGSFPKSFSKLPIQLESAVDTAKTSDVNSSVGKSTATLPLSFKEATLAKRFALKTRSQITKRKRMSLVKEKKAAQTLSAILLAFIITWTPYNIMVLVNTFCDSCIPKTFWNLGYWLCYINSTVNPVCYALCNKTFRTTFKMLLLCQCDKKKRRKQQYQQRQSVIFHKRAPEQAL

Cc1nc2n(c(=O)c1CCN1CCC(c3noc4cc(F)ccc34)CC1)CCCC2OC(=O)NCCOCCOCCOCCOCCNC(=O)CCc1ccc2n1[B-](F)(F)[N+]1=C(c3ccc[nH]3)C=CC1=C2 (stereo not drawn) [Risperidone-2-NB590]
NanoBRET Fold Response (ADRA2C; ADRA2C, tracer 0.1μM): 1.59
NanoBRET Fold Response (ADRA2C; ADRA2C, tracer 1μM): 1.37

COc1ccc2[nH]c(-c3ccc(CNC(=O)CCOCCOCCOCCOCCNC(=O)CCc4ccc5n4[B-](F)(F)[N+]4=C(c6ccc[nH]6)C=CC4=C5)cc3)c(CCNC(C)=O)c2n1 [AzomelatoninICO9-2-NB590]
NanoBRET Fold Response (CHRM1; 0.1μM tracer): 1.20
NanoBRET Fold Response (CHRM1; 1μM tracer): 0.97
NanoBRET Fold Response (HRH1; 0.1μM tracer): 0.94
NanoBRET Fold Response (HRH1; 1μM tracer): 0.89
NanoBRET Fold Response (ADRA2C; 0.1μM tracer): 1.08
NanoBRET Fold Response (ADRA2C; 1μM tracer): 1.17
NanoBRET Fold Response (CHRM3; 0.1μM tracer): 0.95
NanoBRET Fold Response (CHRM3; 1μM tracer): 1.01

COc1ccccc1N1CCN(CCCCN2C(=O)c3ccc(CNC(=O)CCOCCOCCOCCOCCNC(=O)CCc4ccc5n4[B-](F)(F)[N+]4=C(c6ccc[nH]6)C=CC4=C5)cc3C2=O)CC1 [NAN-190-2-NB590]
NanoBRET Fold Response (CHRM1): 1.02
NanoBRET Fold Response (CHRM1; CHRM1, tracer 1μM): 1.16
NanoBRET Fold Response (HRH1; HRH1, tracer 0.1μM): 2.49
NanoBRET Fold Response (HRH1; HRH1, tracer 1μM): 2.31
NanoBRET Fold Response (ADRA2C; ADRA2C, tracer 0.1μM): 1.22
NanoBRET Fold Response (ADRA2C; ADRA2C, tracer 1μM): 0.89
NanoBRET Fold Response (CHRM3; CHRM3, tracer 1μM): 0.99

O=C(CCc1ccc2n1[B-](F)(F)[N+]1=C(c3ccc[nH]3)C=CC1=C2)NCCOCCOCCNC(=O)OCCOCCN1CCN(C2=Nc3ccccc3Sc3ccccc32)CC1 [Quetiapine-a-2-NB590]
NanoBRET Fold Response (ADRA2C; ADRA2C, tracer 1μM): 1.42

O=C(CCc1ccc2n1[B-](F)(F)[N+]1=C(c3ccc[nH]3)C=CC1=C2)NCc1ccc(C(=O)NCCOCCOCCNCC(O)COc2cccc3ccccc23)cc1 (stereo not drawn) [Propranolol-3-NB590]
NanoBRET Fold Response (ADRA2C; ADRA2C, 0.1μM): 0.95
NanoBRET Fold Response (ADRA2C; ADRA2C, 1μM): 1.05

O=C(CCc1ccc2n1[B-](F)(F)[N+]1=C(c3ccc[nH]3)C=CC1=C2)NCc1ccc(C(=O)NCCOCCC(=O)N[C@@H]2CC[C@@]3(O)[C@H]4Cc5ccc(O)c6c5[C@@]3(CCN4CC3CC3)[C@H]2O6)cc1 [Naltrexone-3-NB590]
NanoBRET Fold Response (ADRA2C; ADRA2C, tracer 0.1μM): 0.99
NanoBRET Fold Response (ADRA2C; ADRA2C, tracer 1μM): 1.05

Cc1cc2c(s1)Nc1ccccc1N=C2N1CCN(CCCNC(=O)CCOCCOCCOCCOCCNC(=O)CCc2ccc3n2[B-](F)(F)[N+]2=C(c4ccc[nH]4)C=CC2=C3)CC1 [Olanzapine-a-2-NB590]
NanoBRET Fold Response (ADRA2C; ADRA2C, tracer 0.1μM): 0.97
NanoBRET Fold Response (ADRA2C; ADRA2C, tracer 1μM): 1.50

N#CN/C(=N\CCNC(=O)c1ccc(N)cc1)NCCCOc1cccc(CN2CCCCC2)c1 [Aminopotentidine (unmodified)]
NanoBRET Fold Response (ADRA2C; ADRA2C, other tracers/Aminopotentidine (unmodified), 0.1μM): 1.06
NanoBRET Fold Response (ADRA2C; ADRA2C, other tracers/Aminopotentidine (unmodified), 1μM): 1.11

CN(CCC=C1c2ccccc2CCc2ccccc21)C(=O)CCOCCOCCOCCOCCNC(=O)CCc1ccc2n1[B-](F)(F)[N+]1=C(c3ccc[nH]3)C=CC1=C2 [Amitriptyline-e-2-NB590]
NanoBRET Fold Response (ADRA2C; tracer at 1μM): 1.00
